Laboratory results as given in PubChem BioAssay (NCI).
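Growth conditions: 96-well plates. Treatment: test compound, 48 hours, 5 concentrations. Analysis: linear interpolation between bracketing concentrations; unreached endpoints set to highest concentration. GI50: concentration for 50% inhibition of growth. TGI marks complete inhibition of growth.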

What was measured:
Assay in all cases: DTP human tumour cell line panel, 48 h
NCI-H23 lung = tested on: NCI-H23 lung
NCI-H460 lung = tested on: NCI-H460 lung
NCI/ADR-RES ovarian = tested on: NCI/ADR-RES ovarian
HOP-92 NSCLC = tested on: HOP-92 NSCLC
NCI-H522 lung = tested on: NCI-H522 lung
TK-10 renal = tested on: TK-10 renal
DU-145 prostate = tested on: DU-145 prostate
SF-268 CNS = tested on: SF-268 CNS
CCRF-CEM leukemia = tested on: CCRF-CEM leukemia
A498 renal = tested on: A498 renal

SMILES | TGI (NCI-H23 lung) | TGI (NCI-H460 lung) | TGI (NCI/ADR-RES ovarian) | TGI (HOP-92 NSCLC) | TGI (NCI-H522 lung) | TGI (TK-10 renal) | TGI (DU-145 prostate) | GI50 (SF-268 CNS) | TGI (SF-268 CNS) | TGI (CCRF-CEM leukemia) | GI50 (NCI-H23 lung) | GI50 (NCI-H460 lung) | GI50 (NCI/ADR-RES ovarian) | GI50 (A498 renal) | TGI (A498 renal) | GI50 (HOP-92 NSCLC) | GI50 (NCI-H522 lung) | GI50 (TK-10 renal) | GI50 (DU-145 prostate) | GI50 (CCRF-CEM leukemia)
[Cu+2].[O-]c1ccc2ccccc2c1N=Nc1ccccc1.[O-]c1ccc2ccccc2c1N=Nc1ccccc1 | > 100 µM | > 100 µM | > 100 µM | > 100 µM | > 100 µM | > 100 µM | > 100 µM | > 100 µM | > 100 µM | > 100 µM | – | – | – | – | – | – | – | – | – | –
CCC[C@H](N[C@@H]1CCc2cc(F)cc(F)c2C1)C(=O)Nc1cn(C(C)(C)CNCC(C)(C)C)cn1 | > 89.9 µM | 53.8 µM | > 81 µM | 11.1 µM | 56.1 µM | 72.7 µM | > 100 µM | 20.4 µM | > 100 µM | > 63.6 µM | 17.3 µM | 19.5 µM | 15.3 µM | 7.41 µM | 42.9 µM | 1.47 µM | 15.7 µM | 21.8 µM | 29.7 µM | 14.7 µM
O=C(O)C1C2CC3C(OC(=O)C31)C2Br (centres undefined) | > 100 µM | > 100 µM | > 100 µM | > 100 µM | > 100 µM | > 100 µM | > 100 µM | – | > 100 µM | > 100 µM | – | – | – | – | > 100 µM | – | – | – | – | –
CC(C)=CCc1c(O)cc(/C=C/c2cc(O)c3c(c2)C[C@@H]2C(C)(C)[C@H](O)[C@H](O)C[C@@]2(C)O3)cc1O | 7.68 µM | > 4.36 µM | 7.43 µM | 2.6 µM | 2.86 µM | > 3.1 µM | > 10 µM | 1.11 µM | > 7.76 µM | 2 µM | 1.51 µM | 0.00146 µM | 1.38 µM | 1.22 µM | 9.57 µM | 0.0104 µM | 0.363 µM | 0.479 µM | 1.96 µM | < 0.001 µM
CCOC(=O)CC1(O)C=CC(=O)C=C1 | 1.75 µg/mL | 3.21 µg/mL | 6.57 µg/mL | 5.44 µg/mL | 1.31 µg/mL | 6.04 µg/mL | 7.75 µg/mL | 0.57 µg/mL | 1.92 µg/mL | 7.02 µg/mL | 0.541 µg/mL | 1.12 µg/mL | 1.28 µg/mL | 3.09 µg/mL | 5.26 µg/mL | 3.22 µg/mL | 0.515 µg/mL | 2.12 µg/mL | 2.54 µg/mL | 0.757 µg/mL
CCOc1ccccc1/C=C1\NC(=O)N(/C=C2\C(=O)Oc3ccccc3C2=O)C1=O | 95.5 µM | > 100 µM | > 100 µM | 67.9 µM | > 100 µM | 74.7 µM | > 100 µM | – | > 100 µM | 59.1 µM | – | – | – | – | – | – | – | – | – | –
CS(=O)(=O)CCNCc1ccc(-c2ccc3ncnc(Nc4ccc(OCc5cccc(C(F)(F)F)c5)cc4)c3c2)o1 | 15.7 µM | 11.8 µM | > 25 µM | 7.81 µM | 8.91 µM | 11.1 µM | > 22.6 µM | 4.54 µM | 9.82 µM | > 25 µM | 5.93 µM | 5.31 µM | 7.19 µM | 4.38 µM | 13.1 µM | 2.6 µM | 4.8 µM | 3.17 µM | 6.98 µM | 6.14 µM
C#C[C@]1(O)CC[C@H]2[C@@H]3CC=C4c5sc(N=C(N)N)nc5CC[C@]4(C)[C@H]3CC[C@@]21C | 2.92 µM | 2.5 µM | 3.59 µM | 2.37 µM | 3.67 µM | 3.44 µM | 2.67 µM | 0.959 µM | 2.75 µM | 3.43 µM | 1.26 µM | 1.05 µM | 1.44 µM | 0.274 µM | 1.02 µM | 0.842 µM | 1.63 µM | 1.85 µM | 1.19 µM | 0.365 µM
COc1ccc2c(c1)CC[C@@H]1[C@@H]2CC[C@@]2(C)[C@H]1CC1(CCCCC1)[C@@H]2O | 35.9 µM | 15.4 µM | 30.7 µM | 33 µM | 36.6 µM | 31.8 µM | 29.3 µM | 12 µM | 26.6 µM | – | 18.6 µM | 3.82 µM | 14.8 µM | 16.7 µM | 32 µM | 16 µM | 17.9 µM | 12.2 µM | 15.2 µM | –
CN1C(=O)CNC(=O)[C@H](NC(=O)c2nc3ccccc3cc2O)CSSC[C@H]1C(=O)NCCc1nc2ccccc2cc1O | 60.9 µM | > 35.2 µM | > 100 µM | > 100 µM | 7.46 µM | 47.3 µM | 23.2 µM | 4.19 µM | 37.9 µM | > 52.7 µM | 13.6 µM | 1.15 µM | > 88.5 µM | > 100 µM | > 100 µM | > 100 µM | 2.38 µM | 20.5 µM | 5.19 µM | 3.25 µM
COc1cc(CSc2nc3ccc(C)cc3c(=O)n2Cc2ccccc2)cc(OC)c1OC | > 100 µM | > 100 µM | 14.6 µM | 7.42 µM | 2.53 µM | 47.9 µM | 20.4 µM | 5.01 µM | > 100 µM | > 100 µM | 4.4 µM | 2.26 µM | 1.51 µM | 2.14 µM | 12.4 µM | 1.44 µM | 0.327 µM | 6.47 µM | 3.14 µM | 2.37 µM
CCCCCCCCCCCCCCCc1cc(O)ccc1N | > 100 µM | > 100 µM | 68.8 µM | 93.7 µM | 0.452 µM | > 100 µM | > 100 µM | 4.33 µM | 23.9 µM | – | > 96.2 µM | > 100 µM | 5.81 µM | 21.7 µM | 75.3 µM | 12.4 µM | 0.127 µM | > 63 µM | > 100 µM | 0.0518 µM
O=C(Nc1cc(C(F)(F)F)ccc1F)Nc1n[nH]c2ccccc12 | > 100 µM | > 100 µM | > 100 µM | > 100 µM | > 100 µM | > 100 µM | > 100 µM | > 100 µM | > 100 µM | – | > 100 µM | > 100 µM | > 100 µM | > 100 µM | > 100 µM | > 100 µM | > 100 µM | > 100 µM | > 100 µM | –
